Experimental data: publication PMC9951290, “Comprehensive Structure–Activity Relationship Studies of Cepafungin Enabled by Biocatalytic C–H Oxidations” (ACS Central Science, 2023)

Target: T1, proteasome subunit β5 (Homo sapiens, UniProt P28074)
T1 construct: Following incubation of the compounds in cell culture for 6 h, cells were lysed; endogenous in cells; host or cells: RPMI 8226 (human multiple myeloma)
Test: In situ β5 proteasome activity assay (Suc-LLVY-AMC) in RPMI 8226 cells
Type: cell-based
Conditions: RPMI 8226 cells
From the text: A preliminary series of analogues, including the natural product glidobactin A (2), were synthesized by largely the same route (Scheme 2B, Figure 2).[36] Desoxycepafungin (38) was synthesized from Boc-Lys(Boc)-OH by peptide couplings/macrocyclization to assess the role of the macrocycle hydroxylation in 1 toward proteasome inhibition. The saturated cepafungin analogue 39 was designed to address the possible role of rigidity in the tail fragment induced by the diene seen in many natural cepafungins and glidobactins. An analogue bearing unsaturation at its macrocyclic lysine was envisioned to provide a head-to-head comparison between the cepafungin and syringolin macrocyclic core. […] Proteasome subunit β5 IC50 values were determined in situ in RPMI 8226 cells. In close agreement with prior measurement of β5 IC50 for natural 1 and 2 in purified yeast proteasome,[12] in our hands the additional branching methyl in 1 indeed leads to ca. 5-fold improved IC50 compared to 2 in RPMI 8226 cells. […] Likewise, saturation of the fatty acid fragment in 39 causes ca. 14-fold decrease in β5 inhibition. This preliminary series of analogues highlighted that the macrocyclic hydroxylation, fatty acid unsaturation, and terminal lipid functionality are critical for potent proteasome inhibitory activity.
Cellular assays were performed on human multiple myeloma RPMI 8226 cells (Figure 4). First, relative inhibition of proteasome subunits β5 and β2 for all analogues and the natural product was measured at 30 nM compound concentration. Following incubation of the compounds in cell culture for 6 h, cells were lysed, and fluorogenic subunit-specific peptide substrates Suc-LLVY-AMC (β5) or Ac-RLR-AMC (β2) were incubated with the lysates; fluorescence readings provided relative proteasome activity levels in comparison with DMSO (Figure 4A). Next, cytotoxicity screening was performed at 30 and 100 nM concentrations for sufficient coverage of dynamic range (Figure 4B). […] Therefore, the improved cytotoxicity of phenyl cepafungin 50 likely results from a more pronounced loss of β5 function in RPMI 8226 cells. This drastic increase in proteasome inhibition may be due to π-stacking of the lipid tail phenyl ring with the β6 subunit residues Tyr106 and/or Tyr5. The β2 subunit-bound natural product has residues Tyr102 and Phe103 on the adjacent β3 subunit oriented further away from the terminal lipid methyl groups, and presumably would not facilitate π-stacking to the extent possible at the adjacent β6 subunit (see Figure 3 and Figure S4). […] These combined modifications were made in hopes that the effects of both substitutions would be additive. […] The presence of a Thr residue next to the cepafungin macrocycle appears to be favored over the ethyl side chain of desoxy-Thr analogue 44 as indicated by cytotoxicity and hydrogen-bonding seen in the cepafungin-bound crystal structure (Figures 3 and 4B). […]
Mammalian cell culture and lysate preparation
Mammalian cells were maintained in RPMI-1640 media. All media were supplemented with 10% fetal bovine serum (FBS, Life Technologies Cat# 10437028), non-essential amino acids (Sigma-Aldrich Cat# M7145) and penicillin/streptomycin (Sigma-Aldrich Cat# P4333). Cells were grown at 37 °C under 5% CO2 atmosphere. […] Cells were lysed by needle sonication to obtain cell lysates and protein concentration was determined using the […]
fluorescence was read at A360ex/A460em. […]

## CC(C)CCCCCC=CC=CC(=O)NC(C(=O)NC1CC(O)CCNC(=O)C=CC(C)NC1=O)C(C)O (stereo not drawn) [compound 1, cepafungin I]
  fold improved β5 IC50 of 1 compared to 2: ca. 5 fold
  fold improved β5 inhibition of 1 compared to 38: ca. 11 fold
6 h, Suc-LLVY-AMC, n = 3, Figure 4D
  IC50: 28 nM
